The supplement of paper PMC10307832

Key:
Experiment in all cases: relative viability (nuclei count vs DMSO), 5 days (fraction); higher = more cells survive
LXF-289 = test system: LXF-289
Procedure, shortened: (§1)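 Lung cancer cell lines were seeded in 1536-well plates and dosed by pin tool the next day, with either a single drug or a fixed anchor-drug dose combined with five library-drug doses (not always all listed) spaced in √10 steps. Five days later, one step fixed the cells and stained their nuclei (final 0.05% Triton X-100, 1% formaldehyde, 1 ug/ml Hoechst), and nuclei were counted on 4× images. Relative viability is the nuclei count in treated wells divided by the count in vehicle wells, and each value is the median of duplicate plates.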

NCI-H460 = test system: NCI-H460
Procedure, shortened: as §1

NCI-H1734 = test system: NCI-H1734
Procedure, shortened: as §1

201T = test system: 201T
Procedure, shortened: as §1

NCI-H1437 = test system: NCI-H1437
Procedure, shortened: as §1

NCI-H1651 = test system: NCI-H1651
Procedure, shortened: as §1

H3255 = test system: H3255
Procedure, shortened: as §1

NCI-H23 = test system: NCI-H23
Procedure, shortened: as §1

SW 900 = test system: SW 900
Procedure, shortened: as §1

NCI-H441 = test system: NCI-H441
Procedure, shortened: as §1

CAL-12T = test system: CAL-12T
Procedure, shortened: as §1

EMC-BAC-2 = test system: EMC-BAC-2
Procedure, shortened: as §1

UMC-11 = test system: UMC-11
Procedure, shortened: as §1

NCI-H2342 = test system: NCI-H2342
Procedure, shortened: as §1

ChaGo-K-1 = test system: ChaGo-K-1
Procedure, shortened: as §1

NCI-H838 = test system: NCI-H838
Procedure, shortened: as §1

NCI-H2085 = test system: NCI-H2085
Procedure, shortened: as §1

NCI-H1975 = test system: NCI-H1975
Procedure, shortened: as §1

HOP-62 = test system: HOP-62
Procedure, shortened: as §1

NCI-H1755 = test system: NCI-H1755
Procedure, shortened: as §1

NCI-H2405 = test system: NCI-H2405
Procedure, shortened: as §1

NCI-H2347 = test system: NCI-H2347
Procedure, shortened: as §1

NCI-H2023 = test system: NCI-H2023
Procedure, shortened: as §1

With `Oc1nc(-c2ccc(C(F)(F)F)cc2)nc2c1CSCC2` [XAV939] + CC(=O)c1c(C)c2cnc(Nc3ccc(N4CCNCC4)cn3)nc2n(C2CCCC2)c1=O [Palbociclib] (partner 0.5 µM) the relative viability (LXF-289; first compound 0.08 µM) was 0.565, the relative viability (LXF-289; first compound 0.253 µM) was 0.571 and the relative viability (LXF-289; first compound 0.8 µM) was 0.588. For the same compound, the relative viability (LXF-289; first compound 2.53 µM) was 0.632, the relative viability (NCI-H460; first compound 0.08 µM) was 0.223 and the relative viability (NCI-H460; first compound 0.253 µM) was 0.177. The relative viability (NCI-H460; first compound 0.8 µM) was 0.12, the relative viability (NCI-H460; first compound 2.53 µM) was 0.0927 and the relative viability (NCI-H1734; first compound 0.08 µM) was 0.346. It also gave a relative viability (NCI-H1734; first compound 0.253 µM) of 0.3, a relative viability (NCI-H1734; first compound 0.8 µM) of 0.321 and a relative viability (NCI-H1734; first compound 2.53 µM) of 0.357. The relative viability (201T; first compound 0.08 µM) was 0.362, the relative viability (201T; first compound 0.253 µM) was 0.315 and the relative viability (201T; first compound 0.8 µM) was 0.338. For the same compound, the relative viability (201T; first compound 2.53 µM) was 0.3, the relative viability (NCI-H1437; first compound 0.08 µM) was 0.32 and the relative viability (NCI-H1437; first compound 0.253 µM) was 0.297. For the same compound, the relative viability (NCI-H1437; first compound 0.8 µM) was 0.301, the relative viability (NCI-H1437; first compound 2.53 µM) was 0.194 and the relative viability (NCI-H1651; first compound 0.08 µM) was 0.566. It also gave a relative viability (NCI-H1651; first compound 0.253 µM) of 0.521, a relative viability (NCI-H1651; first compound 0.8 µM) of 0.529 and a relative viability (NCI-H1651; first compound 2.53 µM) of 0.462. The relative viability (H3255; first compound 0.08 µM) was 0.311, the relative viability (H3255; first compound 0.253 µM) was 0.317 and the relative viability (H3255; first compound 0.8 µM) was 0.314. For the same compound, the relative viability (H3255; first compound 2.53 µM) was 0.291, the relative viability (NCI-H23; first compound 0.08 µM) was 0.529 and the relative viability (NCI-H23; first compound 0.8 µM) was 0.465. It also gave a relative viability (NCI-H23; first compound 2.53 µM) of 0.386, a relative viability (SW 900; first compound 0.253 µM) of 0.539 and a relative viability (SW 900; first compound 0.8 µM) of 0.56. The relative viability (SW 900; first compound 2.53 µM) was 0.285, the relative viability (NCI-H441; first compound 0.08 µM) was 0.222 and the relative viability (NCI-H441; first compound 0.253 µM) was 0.189. For the same compound, the relative viability (NCI-H441; first compound 0.8 µM) was 0.182, the relative viability (NCI-H441; first compound 2.53 µM) was 0.189 and the relative viability (CAL-12T; first compound 0.08 µM) was 0.465. It also gave a relative viability (CAL-12T; first compound 0.253 µM) of 0.342, a relative viability (CAL-12T; first compound 0.8 µM) of 0.263 and a relative viability (CAL-12T; first compound 2.53 µM) of 0.209. For the same compound, the relative viability (EMC-BAC-2; first compound 0.08 µM) was 0.555, the relative viability (EMC-BAC-2; first compound 0.253 µM) was 0.491 and the relative viability (EMC-BAC-2; first compound 0.8 µM) was 0.478. It also gave a relative viability (EMC-BAC-2; first compound 2.53 µM) of 0.338, a relative viability (UMC-11; first compound 0.08 µM) of 0.326 and a relative viability (UMC-11; first compound 0.253 µM) of 0.287. For the same compound, the relative viability (UMC-11; first compound 0.8 µM) was 0.355, the relative viability (UMC-11; first compound 2.53 µM) was 0.232 and the relative viability (NCI-H2342; first compound 0.08 µM) was 0.555. It also gave a relative viability (NCI-H2342; first compound 0.253 µM) of 0.464, a relative viability (NCI-H2342; first compound 0.8 µM) of 0.468 and a relative viability (NCI-H2342; first compound 2.53 µM) of 0.467. It also gave a relative viability (ChaGo-K-1; first compound 0.08 µM) of 0.99, a relative viability (ChaGo-K-1; first compound 0.253 µM) of 0.925 and a relative viability (ChaGo-K-1; first compound 0.8 µM) of 0.915. It also gave a relative viability (ChaGo-K-1; first compound 2.53 µM) of 0.887, a relative viability (NCI-H838; first compound 0.08 µM) of 0.217 and a relative viability (NCI-H838; first compound 0.253 µM) of 0.203. The relative viability (NCI-H838; first compound 0.8 µM) was 0.179, the relative viability (NCI-H838; first compound 2.53 µM) was 0.148 and the relative viability (NCI-H2085; first compound 0.08 µM) was 0.489. For the same compound, the relative viability (NCI-H2085; first compound 0.253 µM) was 0.435, the relative viability (NCI-H2085; first compound 0.8 µM) was 0.491 and the relative viability (NCI-H2085; first compound 2.53 µM) was 0.451. For the same compound, the relative viability (NCI-H1975; first compound 0.08 µM) was 0.54, the relative viability (NCI-H1975; first compound 0.253 µM) was 0.483 and the relative viability (NCI-H1975; first compound 0.8 µM) was 0.618. For the same compound, the relative viability (NCI-H1975; first compound 2.53 µM) was 0.508, the relative viability (HOP-62; first compound 0.08 µM) was 0.467 and the relative viability (HOP-62; first compound 0.253 µM) was 0.4. For the same compound, the relative viability (HOP-62; first compound 0.8 µM) was 0.378, the relative viability (HOP-62; first compound 2.53 µM) was 0.313 and the relative viability (NCI-H1755; first compound 0.08 µM) was 0.439. It also gave a relative viability (NCI-H1755; first compound 0.253 µM) of 0.341, a relative viability (NCI-H1755; first compound 0.8 µM) of 0.458 and a relative viability (NCI-H1755; first compound 2.53 µM) of 0.414. The relative viability (NCI-H2405; first compound 0.08 µM) was 0.554, the relative viability (NCI-H2405; first compound 0.253 µM) was 0.513 and the relative viability (NCI-H2405; first compound 0.8 µM) was 0.492. For the same compound, the relative viability (NCI-H2405; first compound 2.53 µM) was 0.386, the relative viability (NCI-H2347; first compound 0.08 µM) was 0.403 and the relative viability (NCI-H2347; first compound 0.253 µM) was 0.412. For the same compound, the relative viability (NCI-H2347; first compound 0.8 µM) was 0.435, the relative viability (NCI-H2347; first compound 2.53 µM) was 0.429 and the relative viability (NCI-H2023; first compound 0.08 µM) was 0.405. It also gave a relative viability (NCI-H2023; first compound 0.253 µM) of 0.291, a relative viability (NCI-H2023; first compound 0.8 µM) of 0.328 and a relative viability (NCI-H2023; first compound 2.53 µM) of 0.295.
